Measured values as given in patent US8431376B2, “Bacterial replication systems and methods” (priority 2004, dated 2013).

Assays:
Assay type in all cases: biochemical
[1] = molecular target: S. pyogenes DNA polymerase holoenzyme (PolC, tau-complex, β) (Streptococcus pyogenes, UniProt Q8NZB5); conditions: read-out: IC50 S. pyog.
[2] = molecular target: Y. pestis DNA polymerase III holoenzyme (Yersinia pestis, UniProt Q0WHY6); conditions: read-out: IC50 Y. pestis
[3] = molecular target: Y. pestis DNA polymerase III holoenzyme
Pol III holoenzyme = conditions: read-out: low μM activity as Pol III holoenzyme inhibitor

Sequence of S. pyogenes DNA polymerase holoenzyme (PolC, tau-complex, β) (Q8NZB5 whole entry): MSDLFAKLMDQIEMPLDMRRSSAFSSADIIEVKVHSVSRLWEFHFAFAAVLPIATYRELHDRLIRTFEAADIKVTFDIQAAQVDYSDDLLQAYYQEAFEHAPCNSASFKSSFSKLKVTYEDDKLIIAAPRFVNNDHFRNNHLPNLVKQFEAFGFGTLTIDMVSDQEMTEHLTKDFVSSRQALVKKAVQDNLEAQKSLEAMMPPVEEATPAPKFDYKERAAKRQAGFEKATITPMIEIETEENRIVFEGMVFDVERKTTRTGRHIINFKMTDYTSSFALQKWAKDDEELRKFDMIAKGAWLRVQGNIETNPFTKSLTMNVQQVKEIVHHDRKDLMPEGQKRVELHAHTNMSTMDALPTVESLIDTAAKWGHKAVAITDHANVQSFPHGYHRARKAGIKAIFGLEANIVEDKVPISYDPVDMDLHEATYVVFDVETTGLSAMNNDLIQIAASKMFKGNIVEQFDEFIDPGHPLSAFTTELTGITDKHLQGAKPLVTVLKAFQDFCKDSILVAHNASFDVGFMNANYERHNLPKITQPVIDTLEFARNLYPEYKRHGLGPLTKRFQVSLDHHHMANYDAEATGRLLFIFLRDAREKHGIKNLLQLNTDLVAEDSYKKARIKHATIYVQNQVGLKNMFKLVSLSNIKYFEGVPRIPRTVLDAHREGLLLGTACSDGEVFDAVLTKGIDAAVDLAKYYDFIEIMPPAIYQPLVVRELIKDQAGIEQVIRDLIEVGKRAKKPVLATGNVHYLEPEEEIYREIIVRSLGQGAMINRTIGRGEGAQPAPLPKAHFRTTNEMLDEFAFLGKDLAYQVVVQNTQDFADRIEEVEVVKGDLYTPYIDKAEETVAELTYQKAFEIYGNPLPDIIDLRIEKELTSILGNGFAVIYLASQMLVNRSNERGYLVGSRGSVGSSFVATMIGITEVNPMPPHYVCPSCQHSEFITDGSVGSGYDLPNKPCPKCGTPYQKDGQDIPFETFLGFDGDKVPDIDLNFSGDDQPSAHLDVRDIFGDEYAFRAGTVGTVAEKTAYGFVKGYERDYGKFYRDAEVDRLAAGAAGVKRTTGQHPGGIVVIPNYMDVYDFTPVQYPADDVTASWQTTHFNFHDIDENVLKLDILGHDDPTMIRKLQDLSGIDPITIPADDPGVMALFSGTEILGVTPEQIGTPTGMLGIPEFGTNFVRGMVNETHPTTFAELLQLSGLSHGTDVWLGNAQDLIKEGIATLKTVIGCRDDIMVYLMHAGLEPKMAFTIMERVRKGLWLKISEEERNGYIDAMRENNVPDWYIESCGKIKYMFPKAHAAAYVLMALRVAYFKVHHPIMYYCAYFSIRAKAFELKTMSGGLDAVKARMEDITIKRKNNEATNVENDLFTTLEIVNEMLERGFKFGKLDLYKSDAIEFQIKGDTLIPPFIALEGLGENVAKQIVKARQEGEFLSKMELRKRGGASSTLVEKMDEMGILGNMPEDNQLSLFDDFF
Sequence of S. pyogenes DNA polymerase holoenzyme (PolC, tau-complex, β) (Q7DAL6 1-556 partner): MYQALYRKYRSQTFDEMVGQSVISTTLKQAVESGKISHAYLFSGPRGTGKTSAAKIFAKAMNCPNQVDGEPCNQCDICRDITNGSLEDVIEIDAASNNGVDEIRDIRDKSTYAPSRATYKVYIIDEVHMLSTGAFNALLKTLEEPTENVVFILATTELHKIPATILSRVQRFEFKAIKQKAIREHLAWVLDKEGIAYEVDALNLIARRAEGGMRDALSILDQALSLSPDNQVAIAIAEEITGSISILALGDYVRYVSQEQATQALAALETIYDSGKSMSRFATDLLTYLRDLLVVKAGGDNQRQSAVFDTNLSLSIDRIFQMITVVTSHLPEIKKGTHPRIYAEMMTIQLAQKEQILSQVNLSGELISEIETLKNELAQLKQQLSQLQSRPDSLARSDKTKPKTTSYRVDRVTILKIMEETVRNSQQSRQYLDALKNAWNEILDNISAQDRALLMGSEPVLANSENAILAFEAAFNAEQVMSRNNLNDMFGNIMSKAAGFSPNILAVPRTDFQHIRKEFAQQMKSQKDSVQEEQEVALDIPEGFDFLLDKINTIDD
Sequence of S. pyogenes DNA polymerase holoenzyme (PolC, tau-complex, β) (Q7DAL5 1-346 partner): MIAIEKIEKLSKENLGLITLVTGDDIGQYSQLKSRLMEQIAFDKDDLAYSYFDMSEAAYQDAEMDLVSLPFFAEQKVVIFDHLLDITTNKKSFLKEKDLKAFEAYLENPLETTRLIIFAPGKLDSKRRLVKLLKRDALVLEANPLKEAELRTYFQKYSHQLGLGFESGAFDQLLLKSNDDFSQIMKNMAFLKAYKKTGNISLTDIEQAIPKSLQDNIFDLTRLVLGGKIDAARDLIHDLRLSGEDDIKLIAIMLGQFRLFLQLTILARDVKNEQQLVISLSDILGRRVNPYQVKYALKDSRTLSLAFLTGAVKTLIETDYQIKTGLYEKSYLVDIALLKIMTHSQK
Sequence of S. pyogenes DNA polymerase holoenzyme (PolC, tau-complex, β) (Q9A209 1-378 partner): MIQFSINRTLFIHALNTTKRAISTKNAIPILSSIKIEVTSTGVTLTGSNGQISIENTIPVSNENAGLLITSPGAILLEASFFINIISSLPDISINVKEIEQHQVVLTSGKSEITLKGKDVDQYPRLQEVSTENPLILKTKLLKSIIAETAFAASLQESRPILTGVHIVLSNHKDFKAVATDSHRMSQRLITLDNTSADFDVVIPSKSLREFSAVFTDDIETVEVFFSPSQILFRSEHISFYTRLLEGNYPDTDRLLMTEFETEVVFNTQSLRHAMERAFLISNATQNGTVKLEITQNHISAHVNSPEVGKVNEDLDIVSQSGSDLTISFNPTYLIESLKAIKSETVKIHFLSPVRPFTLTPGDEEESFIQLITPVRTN

COc1c(Br)cc(Br)cc1/C=C1\SC(=S)NC1=O
IC50 [1]: 18.1 µM
IC50 [2]: 31.4 µM

CCOc1c(Br)cc(Br)cc1/C=C1\SC(=S)NC1=O
IC50 [1]: 13.5 µM
IC50 [2]: 22.3 µM

CC(C)Oc1c(Br)cc(Br)cc1/C=C1\SC(=S)NC1=O
IC50 [1]: 7.11 µM
IC50 [2]: 18.8 µM

O=C1NC(=S)S/C1=C\c1cc(Br)cc(Br)c1O
IC50 [1]: > 320 µM
IC50 [2]: > 320 µM

O=C1NC(=S)S/C1=C\c1cc(Br)cc(Br)c1
IC50 [1]: 14.2 µM
IC50 [2]: 22 µM

C/N=C1\NC(=O)/C(=C/c2cc(Br)cc(Br)c2OC)S1
IC50 [1]: > 320 µM
IC50 [2]: > 320 µM

O=C1NC(=S)S/C1=C\c1cc(Br)ccc1F
IC50 [1]: 64.5 µM
IC50 [2]: 95.9 µM

O=C1NC(=S)S/C1=C\c1ccc(Br)cc1F
IC50 [1]: 60 µM
IC50 [2]: 28.5 µM

O=C1NC(=S)S/C1=C\c1cc(F)c(F)cc1F
IC50 [1]: 121 µM
IC50 [2]: 203 µM

O=C1NC(=S)S/C1=C\c1cccc(Cl)c1F
IC50 [1]: 79.9 µM
IC50 [2]: 123 µM

COc1cccc(/C=C2\SC(=S)NC2=O)c1F
IC50 [1]: 277 µM
IC50 [2]: 54.1 µM

COc1cccc(OC)c1/C=C1\SC(=S)NC1=O
IC50 [1]: > 320 µM
IC50 [2]: 186 µM

Cc1cccc(C)c1/C=C1\SC(=S)NC1=O
IC50 [1]: 271 µM
IC50 [2]: 302 µM

O=C1NC(=S)S/C1=C\c1c(Cl)cccc1Cl
IC50 [1]: 102 µM
IC50 [2]: 162 µM

O=C1NC(=S)S/C1=C\c1cc([N+](=O)[O-])ccc1Sc1ccc(Cl)cc1
IC50 [1]: 3.53 µM
IC50 [2]: 4.62 µM

CC(C)(C)c1ccc(Oc2ccc([N+](=O)[O-])cc2/C=C2\SC(=S)NC2=O)cc1
IC50 [1]: 4.38 µM
IC50 [2]: 7.03 µM

O=C1NC(=S)S/C1=C\c1cc([N+](=O)[O-])ccc1OC(F)F
IC50 [1]: 96 µM
IC50 [2]: 52.9 µM

O=C1NC(=S)S/C1=C\c1cc([N+](=O)[O-])ccc1SC1CCCCC1
IC50 [1]: 8.73 µM
IC50 [2]: 9.94 µM

COc1ccc([N+](=O)[O-])cc1/C=C1\SC(=S)NC1=O
IC50 [1]: 89 µM
IC50 [2]: 126 µM

COc1ccc(/C=C2\SC(=S)NC2=O)cc1[N+](=O)[O-]
IC50 [1]: > 320 µM
IC50 [2]: 48.9 µM

O=C1NC(=S)S/C1=C\c1ccc(N2CCOCC2)c([N+](=O)[O-])c1
IC50 [1]: > 320 µM
IC50 [2]: > 320 µM

O=C1NC(=S)S/C1=C\c1ccc(Cl)cc1[N+](=O)[O-]
IC50 [1]: 133 µM
IC50 [2]: 63.9 µM

O=C1NC(=S)S/C1=C\c1cc(Cl)ccc1[N+](=O)[O-]
IC50 [1]: 163 µM
IC50 [2]: 267 µM

COc1cccc(F)c1/C=C1\SC(=S)NC1=O
IC50 [1]: > 320 µM
IC50 [3]: 195 µM

COc1ccc(F)c(/C=C2\SC(=S)NC2=O)c1
IC50 [1]: 193 µM
IC50 [2]: 179 µM

O=C1NC(=S)S/C1=C\c1ccc(F)c(F)c1
IC50 [1]: 181 µM
IC50 [2]: 241 µM

O=C1NC(=S)S/C1=C\c1cc(F)ccc1F
IC50 [1]: 211 µM

O=C1NC(=S)S/C1=C\c1c(F)cccc1F
IC50 [1]: > 320 µM
IC50 [2]: 196 µM

O=C1NC(=S)S/C1=C\c1cccc(F)c1F
IC50 [1]: 214 µM
IC50 [2]: 212 µM

O=C1NC(=S)S/C1=C\c1ccc(F)cc1F
IC50 [1]: 288 µM
IC50 [2]: 315 µM

O=C1NC(=S)S/C1=C\c1cc(C(F)(F)F)ccc1F
IC50 [1]: 45.1 µM
IC50 [2]: 108 µM

O=C1NC(=S)S/C1=C\c1cccc(C(F)(F)F)c1F
IC50 [1]: 67.9 µM
IC50 [2]: 166 µM

COc1cc(F)c(/C=C2\SC(=S)NC2=O)cc1OC
IC50 [1]: > 320 µM
IC50 [2]: > 320 µM

C/N=C1\NC(=O)/C(=C/c2ccc(Cl)c(Cl)c2)S1
IC50 [1]: 112 µM
IC50 [2]: 286 µM

N=C1NC(=O)/C(=C/c2ccc(Cl)c(Cl)c2)S1
IC50 [1]: 145 µM
IC50 [2]: 116 µM

O=C1NC(=S)S/C1=C\c1cc([N+](=O)[O-])ccc1N1CCCCC1
IC50 [1]: 23.7 µM
IC50 [2]: 41.2 µM

O=C1NC(=S)S/C1=C\c1cc([N+](=O)[O-])ccc1N1CCOCC1
IC50 [1]: 192 µM
IC50 [2]: 108 µM

O=C1NC(=S)S/C1=C\c1cc([N+](=O)[O-])ccc1F
IC50 [1]: 89.7 µM
IC50 [2]: 101 µM

O=C1NC(=S)S/C1=C\c1cc([N+](=O)[O-])ccc1Cl
IC50 [1]: 81.6 µM
IC50 [2]: 88.9 µM

O=C1NC(=S)S/C1=C\c1ccc(Cl)c([N+](=O)[O-])c1
IC50 [1]: 24.2 µM
IC50 [2]: 27.2 µM

O=C1NC(=S)S/C1=C\c1cc2c(cc1[N+](=O)[O-])OCO2
IC50 [1]: 98.3 µM
IC50 [2]: 144 µM

COc1cc(/C=C2\SC(=S)NC2=O)c([N+](=O)[O-])cc1OC
IC50 [1]: > 320 µM
IC50 [2]: > 320 µM

CN(C)c1ccc(/C=C2\SC(=S)NC2=O)c([NH+]([O-])O)c1 (stereo not shown)
IC50 [1]: 44.4 µM
IC50 [2]: 22.6 µM

O=C1NC(=S)S/C1=C\c1ccc([N+](=O)[O-])c(O)c1
IC50 [2]: 162 µM

O=C1NC(=S)SC1=Cc1cc([N+](=O)[O-])ccc1Sc1ccc(Cl)cc1 [5-[2-(4-Chloro-phenylsulfanyl)-5-nitro-benzylidene]-2-thioxo-thiazolidin-4-one]
IC50 (Pol III holoenzyme): 3 to 7 µM

O=C1NC(=S)S/C1=C\c1ccc(Cl)c(Cl)c1 [drawing 34]
IC50 [1]: 37.2 µM
IC50 [2]: 61.6 µM

O=C1NC(=S)S/C1=C\c1ccc(Cl)c(Cl)c1 [drawing 37]
IC50 [1]: > 320 µM
IC50 [2]: > 320 µM
